Experimental data published in patent US12338262B2 (Forward Therapeutics, Inc., priority 2022, dated 2025).

molecular target: TNF-α (Homo sapiens, UniProt P01375); assay: TNF-α Induced HEK Blue Cellular Assay; type: cell-based; conditions: HEK Blue TNFα reporter cells, TNF-α 100 pg/ml, 24 hrs at 37° C., secreted alkaline phosphatase (QUANTI-Blue, 620 nm)
Protocol: TNF-α Induced HEK Bluet Cellular Assay
Test articles were diluted in DMSO and serially diluted into 384 well assay plate (Corning 3765), at final concentrations ranging from […] to 0.5 nM. HEK Blue™ TNFα reporter cells were added at a final density of 10,000 cell per well in assay media [DMEM (Gibco, cat #21063-029), 10% fetal bovine serum (ExcelBio, cat #FND500), 1% Penicillin-Streptomycin (Solarbio, cat #P1400-100]. TNF-α (R&D 210-TA-020/CF) was then added to the assay plate at a final concentration of 100 pg/ml. This plate was then incubated for 24 hrs at 37° C. and 5% CO2. Secreted alkaline phosphatase expression was then measured using QUANTI-Blue™ (Invivogen), according to manufacturer instructions and read on an Envision microplate reader at 620 nm.
Inhibition data for test compound over a range of concentration was plotted as percentage inhibition of the test compound (100%=maximum inhibition). IC50 values were determined after correcting for background [(sample read-mean of low control)/(mean of high control-mean of low control)] where by the low control is DMSO without stimulation and high control is DMSO with stimulation. The IC50 is defined as the concentration of test compound which produces 50% inhibition and was quantified using the 4 parameter logistic equation to fit the data.

Chain of TNF-α (P01375 77-233 limits assumed): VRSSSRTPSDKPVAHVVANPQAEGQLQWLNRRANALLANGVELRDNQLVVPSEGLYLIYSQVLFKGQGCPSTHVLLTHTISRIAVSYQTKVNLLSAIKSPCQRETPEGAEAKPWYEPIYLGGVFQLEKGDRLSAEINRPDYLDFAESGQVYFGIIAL

Compound	IC50 [nM]
Cc1nc2cc(F)c(-c3ccc(P(C)(C)=O)nc3)nc2c(N[C@H](c2cc(C#N)ccc2F)C(F)F)c1Cl [Example 35, (R)-3-(1-((3-chloro-6-(6-(dimethylphosphoryl)pyridin-3-yl)-7-fluoro-2-methyl-1,5-naphthyridin-4-yl)amino)-2,2-difluoroethyl)-4-fluorobenzonitrile]	≤ 1000
Cc1nc2cc(F)c(-c3cnc(P(C)(C)=O)nc3)nc2c(N[C@@H](c2cc(C#N)ccc2F)C(F)F)c1Cl [Example 36, (S)-3-(1-((3-chloro-6-(2-(dimethylphosphoryl)pyrimidin-5-yl)-7-fluoro-2-methyl-1,5-naphthyridin-4-yl)amino)-2,2-difluoroethyl)-4-fluorobenzonitrile]	≤ 1000
Cc1nc2cc(F)c(-c3ccc(P(=O)(O)O)nc3)nc2c(N[C@H](C)c2cc(C#N)ccc2F)c1Cl [Example 37, diammonium 5-(7-chloro-8-{[(1R)-1-(5-cyano-2-fluorophenyl)ethyl]amino}-3-fluoro-6-methyl-1,5-naphthyridin-2-yl)pyridin-2-ylphosphonate]	10000 to 30000
Cc1nc2cc(F)c(-c3cnc(P(C)(C)=O)nc3)nc2c(N[C@H](c2cc(C#N)ccc2F)C(F)F)c1Cl [Example 38, (R)-3-(1-((3-chloro-6-(2-(dimethylphosphoryl)pyrimidin-5-yl)-7-fluoro-2-methyl-1,5-naphthyridin-4-yl)amino)-2,2-difluoroethyl)-4-fluorobenzonitrile]	≤ 1000
Cc1nc2cc(F)c(-c3ccc(CP(C)(C)=O)nc3)nc2c(N[C@H](C)c2cc(C#N)ccc2F)c1Cl [Example 39, (R)-3-(1-((3-chloro-6-(6-((dimethylphosphoryl)methyl)pyridin-3-yl)-7-fluoro-2-methyl-1,5-naphthyridin-4-yl)amino)ethyl)-4-fluorobenzonitrile]	≤ 1000
Cc1nc2ccc(-c3ccc(P(C)(C)=O)nc3)nc2c(N[C@H](C)c2cc(C#N)ccc2F)c1Cl [Example 40, 3-[(1R)-1-({3-chloro-6-[6-(dimethylphosphoryl)pyridin-3-yl]-2-methyl-1,5-naphthyridin-4-yl}amino)ethyl]-4-fluorobenzonitrile]	≤ 100
Cc1nc2ccc(-c3cnc(P(C)(C)=O)nc3)nc2c(N[C@H](C)c2cc(C#N)ccc2F)c1Cl [Example 41, 3-[(1R)-1-({3-chloro-6-[2-(dimethylphosphoryl)pyrimidin-5-yl]-2-methyl-1,5-naphthyridin-4-yl}amino)ethyl]-4-fluorobenzonitrile]	≤ 1000
CCP(=O)(CC)c1ccc(-c2nc3c(N[C@H](C)c4cc(C#N)ccc4F)c(Cl)c(C)nc3cc2F)cn1 [Example 42, 3-[(1R)-1-({3-chloro-6-[6-(diethylphosphoryl)pyridin-3-yl]-7-fluoro-2-methyl-1,5-naphthyridin-4-yl}amino)ethyl]-4-fluorobenzonitrile]	≤ 100
Cc1nc2cc(F)c(-c3ccc(P(C)(C)=O)nc3)nc2c(N[C@H](C)c2cccc(C#N)c2)c1Cl [Example 43, 3-[(1R)-1-({3-chloro-6-[6-(dimethylphosphoryl)pyridin-3-yl]-7-fluoro-2-methyl-1,5-naphthyridin-4-yl}amino)ethyl]benzonitrile]	≤ 100
CC[C@H](Nc1c(Cl)c(C)nc2cc(F)c(-c3ccc(P(C)(C)=O)nc3)nc12)c1cc(C#N)ccc1F [Example 44, 3-[(1S)-1-({3-chloro-6-[6-(dimethylphosphoryl)pyridin-3-yl]-7-fluoro-2-methyl-1,5-naphthyridin-4-yl}amino)propyl]-4-fluorobenzonitrile]	≤ 100
Cc1nc2cc(F)c(-c3ccc(P(C)(C)=O)nc3)nc2c(N[C@@H](C)c2cccc(F)c2F)c1Cl [Example 45, 3-chloro-N-[(1S)-1-(2,3-difluorophenyl)ethyl]-6-[6-(dimethylphosphoryl)pyridin-3-yl]-7-fluoro-2-methyl-1,5-naphthyridin-4-amine]	≤ 100
Cc1nc2cc(F)c(-c3cnc(P(C)(C)=O)nc3)nc2c(N[C@H](C)c2cccc(C#N)c2)c1Cl [Example 46, 3-[(1R)-1-({3-chloro-6-[2-(dimethylphosphoryl)pyrimidin-5-yl]-7-fluoro-2-methyl-1,5-naphthyridin-4-yl}amino)ethyl]benzonitrile]	≤ 100
CC[C@@H](Nc1c(Cl)c(C)nc2cc(F)c(-c3cnc(P(C)(C)=O)nc3)nc12)c1cccc(C#N)c1 [Example 47, 3-[(1R)-1-({3-chloro-6-[2-(dimethylphosphoryl)pyrimidin-5-yl]-7-fluoro-2-methyl-1,5-naphthyridin-4-yl}amino)propyl]benzonitrile]	≤ 1000
CC[C@@H](Nc1c(Cl)c(C)nc2cc(F)c(-c3ccc(P(C)(C)=O)nc3)nc12)c1cccc(C#N)c1 [Example 48, 3-[(1R)-1-({3-chloro-6-[6-(dimethylphosphoryl)pyridin-3-yl]-7-fluoro-2-methyl-1,5-naphthyridin-4-yl}amino)propyl]benzonitrile]	≤ 100
Cc1nc2cc(F)c(-c3cnc(P4(=O)CCCC4)nc3)nc2c(N[C@H](C)c2cc(C#N)ccc2F)c1Cl [Example 49, 3-[(1R)-1-({3-chloro-7-fluoro-2-methyl-6-[2-(1-oxo-1lambda5-phospholan-1-yl)pyrimidin-5-yl]-1,5-naphthyridin-4-yl}amino)ethyl]-4-fluorobenzonitrile]	≤ 100
Cc1nc2cc(F)c(-c3ccc(P(C)(C)=O)nc3)nc2c(N[C@H](C)c2cccc(F)c2F)c1Cl [Example 50, 3-chloro-N-[(1R)-1-(2,3-difluorophenyl)ethyl]-6-[6-(dimethylphosphoryl)pyridin-3-yl]-7-fluoro-2-methyl-1,5-naphthyridin-4-amine]	≤ 100
Cc1nc2cc(F)c(-c3ccc(P(C)(C)=O)nc3)nc2c(N[C@@H](C)c2cc(F)ccc2F)c1Cl [Example 51, 3-chloro-N-[(1S)-1-(2,5-difluorophenyl)ethyl]-6-[6-(dimethylphosphoryl)pyridin-3-yl]-7-fluoro-2-methyl-1,5-naphthyridin-4-amine]	≤ 100
Cc1nc2cc(F)c(-c3ccc(P(C)(C)=O)nc3)nc2c(N[C@H](C)c2c(F)cccc2F)c1Cl [Example 52, 3-chloro-N-[(1R)-1-(2,6-difluorophenyl)ethyl]-6-[6-(dimethylphosphoryl)pyridin-3-yl]-7-fluoro-2-methyl-1,5-naphthyridin-4-amine]	≤ 1000
Cc1nc2cc(F)c(-c3ccc(P(C)(C)=O)nc3)nc2c(N[C@H](C)c2cc(F)ccc2F)c1Cl [Example 53, 3-chloro-N-[(1R)-1-(2,5-difluorophenyl)ethyl]-6-[6-(dimethylphosphoryl)pyridin-3-yl]-7-fluoro-2-methyl-1,5-naphthyridin-4-amine]	≤ 1000
Cc1nc2cc(F)c(-c3ccc(P(C)(C)=O)nc3)nc2c(N[C@@H](C)c2c(F)cccc2F)c1Cl [Example 54, 3-chloro-N-[(1S)-1-(2,6-difluorophenyl)ethyl]-6-[6-(dimethylphosphoryl)pyridin-3-yl]-7-fluoro-2-methyl-1,5-naphthyridin-4-amine]	≤ 1000
Cc1nc2cc(F)c(-c3cnc(P(C)(C)=O)nc3)nc2c(N[C@H](C)c2ccccc2C(F)(F)F)c1Cl [Example 55, 3-chloro-6-[2-(dimethylphosphoryl)pyrimidin-5-yl]-7-fluoro-2-methyl-N-[(1R)-1-[2-(trifluoromethyl)phenyl]ethyl]-1,5-naphthyridin-4-amine]	10000 to 30000
Cc1nc2cc(F)c(-c3ccc(OCP(C)(C)=O)nc3)nc2c(N[C@H](C)c2ccccc2F)c1Cl [Example 56, 3-chloro-6-{6-[(dimethylphosphoryl)methoxy]pyridin-3-yl}-7-fluoro-N-[(1R)-1-(2-fluorophenyl)ethyl]-2-methyl-1,5-naphthyridin-4-amine]	≤ 100
CC[P@@](C)(=O)c1ccc(-c2nc3c(N[C@H](C)c4cc(C#N)ccc4F)c(Cl)c(C)nc3cc2F)cn1 [Example 57]	≤ 100
Cc1nc2cc(F)c(-c3ccc(P(C)(C)=O)nc3)nc2c(N[C@H](CO)c2ccccc2F)c1Cl [Example 59, (2S)-2-({3-chloro-6-[6-(dimethylphosphoryl)pyridin-3-yl]-7-fluoro-2-methyl-1,5-naphthyridin-4-yl}amino)-2-(2-fluorophenyl)ethanol]	10000 to 30000
Cc1nc2cc(F)c(-c3ccc(P(C)(C)=O)nc3)nc2c(N[C@@H](CO)c2ccccc2F)c1Cl [Example 60, (2R)-2-({3-chloro-6-[6-(dimethylphosphoryl)pyridin-3-yl]-7-fluoro-2-methyl-1,5-naphthyridin-4-yl}amino)-2-(2-fluorophenyl)ethanol]	10000 to 30000
Cc1cc(P(C)(C)=O)ncc1-c1nc2c(N[C@H](C)c3cc(C#N)ccc3F)c(Cl)c(C)nc2cc1F [Example 61, 3-[(1R)-1-({3-chloro-6-[6-(dimethylphosphoryl)-4-methylpyridin-3-yl]-7-fluoro-2-methyl-1,5-naphthyridin-4-yl}amino)ethyl]-4-fluorobenzonitrile]	≤ 1000
Cc1cc(P(C)(C)=O)ncc1-c1nc2c(N[C@H](C)c3ccccc3F)c(Cl)c(C)nc2cc1F [Example 62, 3-chloro-6-[6-(dimethylphosphoryl)-4-methylpyridin-3-yl]-7-fluoro-N-[(1R)-1-(2-fluorophenyl)ethyl]-2-methyl-1,5-naphthyridin-4-amine]	≤ 1000
